Entries after “also recorded” stand apart in the source; their conditions may differ.
Columns and labels:
PPARα = PPARα expression in HUVECs, antibody staining, confocal microscopy; assay type: cell-based, human
Procedure: (§1) Then, six 35-mm dishes were provided, and 2 mL/dish of the solution with the adjusted HUVEC density was inoculated. Auraptene (10 mM) and tangeretin (10 mM) were each added at 2 μL (final concentration: 10 μM)/dish to two dishes. Also, DMSO was added at 2 μL/dish to the remaining 2 dishes to prepare a control.
The supernatant of the HUVECs cultured in each 35-mm dish was removed, and 2 mL/dish of 4% paraformaldehyde in a phosphate buffer solution was added. The cells were left standing at room temperature for 1 hour.
The solution was removed, and then, the cells were rinsed twice. 2 mL/dish of 0.5% Triton-X00 (Wako Pure Chemical Industries, Ltd.) in PBS was added, and the cells were left standing at room temperature for 5 minutes. The solution was removed, and then, the cells were rinsed twice. 1 mL/dish of an anti-ABCD3 antibody, an anti-PPARα antibody or an anti-PPARγ antibody, each of which was diluted 150-fold with a FACS buffer, was added, and the cells were left standing at room temperature for 2 hours for reaction.
The solution was removed, and then, the cells were rinsed twice. 1 mL/dish of DyLight 649-labeled anti-Rabbit IgG antibody diluted 500-fold with a FACS buffer was added, and the cells were left standing at room temperature for 1 hour in the dark for reaction. The solution was removed, and then, the cells were rinsed twice. Two drops of Diamond Antifade Mountant with DAPI were added to the cells, and a round glass cover was put on the cells, followed by fluorescence photographing under a confocal laser scanning microscope.

[1] = test system: fat droplets in human vascular endothelial cells (HUVECs); assay: Intracellular fat droplets, BODIPY staining, confocal microscopy; assay type: cell-based
Procedure: as §1, with “Then, nine” for “Then, six”, “to three” for “to two”, “remaining 3” for “remaining 2”
The supernatant of the HUVECs cultured in each 35-mm dish was removed, and 2 mL/dish of 4% paraformaldehyde in a phosphate buffer solution was added. The cells were left standing at room temperature for 1 hour for cell fixation. The solution was removed, and then, the cells were rinsed twice. 1 mL/dish of BODIPY diluted 2000-fold with a FACS buffer was added, and the cells were left standing at room temperature for 30 minutes in the dark for reaction.
The solution was removed, and then, the cells were rinsed twice. Two drops of Diamond Antifade Mountant with DAPI were added to the cells, and a round glass cover was put on the cells, followed by fluorescence photographing under a confocal laser scanning microscope.

[2] = test system: human vascular endothelial cells (HUVECs)
Procedure: Then, 2 mL of trypsin/EDTA was added to the cells, and the cells were detached by incubation at 37° C. in a 5% CO2 environment. After the cell detachment, 5 mL/dish of a culture medium was added, and the cells were transferred to a 15-mL tube and centrifuged at 1200 rpm for 5 minutes in a centrifuge. The supernatant was removed, and then, the number of cells was adjusted to a cell density of 5×10^4 cells/mL using a cell counting kit by the addition of 5 mL of a culture medium. Then, two 6-well plates were used, and the solution with the adjusted HUVEC density was inoculated at 4 mL/well to 3 wells of each plate. Each phytochemical component was added at 4 μL (final concentration: 10 μM)/well to one well of each plate. Also, a phytochemical dissolving solution DMSO was added at 4 μL/well to the remaining wells to prepare a control. […]
Serial dilutions of auraptene were added to the cells, and the cell death of the HUVECs caused by heat stress was observed by crystal violet staining.

CCL-2 = CCL-2 concentration in supernatant of lymphocytes under heat stress load (ELISA); assay type: cell-based, human
Procedure: 10 mL of human peripheral blood was collected and anti-coagulated with heparin, and 10 mL of PBS(−) was added thereto and stirred. 15 mL of Lymphocyte Separation Medium 1077 (PromoCell GmbH) was layered thereon so as not to mix blood thereinto, followed by blood separation at 1600 rpm for 30 minutes in a centrifuge. The mononuclear cell layer thus separated was collected into a dropper, added to 20 mL of a culture medium, and centrifuged at 1500 rpm for 5 minutes in a centrifuge. The supernatant was removed, and then, 20 mL of a culture solution was added to the cells and stirred. The cells were centrifuged again at 1500 rpm for 5 minutes in a centrifuge. The supernatant was removed, and then, 10 mL of a culture medium was added to the cells and stirred. The whole amount was added to a 10-cm dish and incubated at 37° C. for 1 hour in a 5% CO2 environment. […] The solution with the adjusted lymphocyte density was inoculated at 4 mL/well to 2 wells of each 6-well plate. […] Then, the supernatant was recovered into a 1.5-mL Eppendorf tube and centrifuged at 8000 rpm for 5 minutes in a centrifuge. […]
The solution was removed, and each well was washed four times. […] TMB Microwell Peroxidase Substrate was added at 100 μL/well, followed by the absorbance measurement of the reaction solution in a plate reader at 450 nm.

[3] = Table 2 summary, HUVECs 40° C., 37° C. as comparative control

With `CC(C)=CCC/C(C)=C/COc1ccc2ccc(=O)oc2c1` [auraptene, 7-geranyloxycoumarin] the “expression of PPARα” value (PPARα; HUVECs, 40° C. and 1 day, 10 μM, vs DMSO) was “increase in the expression of PPARα”, the PPARα (PPARα; [3]) was “Increased” and the “amount of fat droplets under heat stress load” value ([1]; HUVECs, 40° C. for 2 days, 10 μM, BODIPY, vs DMSO) was “decrease in the amount of fat droplets; also recorded: decreased the amount of fat droplets”. The “amount of fat droplets at usual culture” value ([1]; HUVECs, usual culture (37° C.), 10 μM, vs DMSO) was “no change in the amount of fat droplets”, the “Amount of fat droplets” value [1, 3] was “Decreased” and the “cell survival by crystal violet staining” value ([2]; HUVECs cultured at 40° C. for 3 days, vs DMSO) was “evidently increased cell survival”. For the same compound, the concentration at which the cell death suppressive effect was confirmed (value in brackets) ([2]; HUVECs, 40° C. for 3 days, crystal violet staining) was 600 nM, the “concentration at which the cell death suppressive effect was confirmed” value ([2]; HUVECs, 40° C. for 3 days, serial dilutions, crystal violet staining) was 0.6 µM and the “Cytotoxicity (cell death)” value [2, 3] was “Suppressed”. The “CCL-2 sample A” value (CCL-2; peripheral blood lymphocytes sample A, 40° C., auraptene 10 μM, non-addition 61 ± 0.2) was 32 ± 1.7 pg/mL and the “production of CCL-2” value (CCL-2; peripheral blood lymphocytes under heat stress load, vs DMSO, p<0.05) was “significantly suppressed”.
